Measured values as given in patent US20200338112A1, “METHODS AND MATERIALS FOR TREATING CANCER” (Mayo Foundation for Medical Education and Research, priority 2018, published 2020).
“Also recorded” adds a separate entry of the source. Where a SMILES comes first, the peptide text is derived from it. The star is where a group is joined. Cbz = O=C(OCc1ccccc1)*

Assays:
cells = test: Colony formation of cells pretreated with durvalumab, then IR; format: cell-based; details: durvalumab 10 μg/mL, 24 hours before IR, FIG. 1f
Procedure: FIG. 1a contains colony formation experiments of HCT116 cells under either ionizing radiation (IR) (0, 2, 4 Gy) or cisplatin (0, 0.5, 1 and 2 μM) treatment. […] FIG. 1b contains knockdown and overexpression efficiency validation of PD-L1 in HCT116 using western blot; glyceraldehyde 3-phosphate dehydrogenase (GAPDH) was used as a loading control. […] The formation of rH2AX foci was sustained in PD-L1 depletion group compared to control group, data is represented as mean±s.e.m for each view. FIG. 1e contains an assessment of wild-type (+/+, n=16), PD-L1 heterozygous (+/−, n=24), and PD-L1 knockout (−/−, n=16) BALB/C mice that were exposed to whole body irradiation (7 Gy). Comparisons between groups were made using the Log-rank test. […] Result were based upon colony formation (±s.e.m., n=3).

[1] = test system: NBS1 protein level in MDA-MB-231 cells; test: Western blot of NBS1 protein level after MG132 treatment; format: cell-based; details: MG132 10 μM for six hours; PD-L1 depleted MDA-MB-231 cells; FIG. 3c
Procedure: FIGS. 3a and 3b contain western blot analyses of BRCA1, NBS1, RAD50, MRE11, and PD-L1 in HCT116 and MDA-MB-231 cells, respectively, that were infected with lentiviral control shRNA or two different shRNAs targeting PD-L1. GAPDH was used as a loading control. FIG. 3c contains a western blot of NBS1 protein levels in MDA-MB-231 cells infected with lentivirus control shRNA or two different shRNAs targeting PD-L1 were treated with DMSO (control) or MG132 (10 μM) for six hours before proteins were harvested. GAPDH and p53 were used as loading and positive control, respectively. […] GAPDH was used for normalization. FIGS. 3e, 3f, and 3g assess HCT116 cells treated with the transcription inhibitor actinomycin D (5 μg/mL). NBS1 mRNA levels were quantified using RT-PCR. Knockdown of PD-L1 in HCT116 decreased the half-life of NBS1 and BRCA1 mRNA, while restoring PD-L1 in the knockdown cells rescued the phenotype (±s.e.m., n=3). GAPDH was used for normalization. […] The change of NBS1 and BRCA1 mRNA level was not due to transcription, since the transcription of BRCA1 was not changed, while the transcription of NBS1 was even increased after PD-L1 was knocked down (±s.e.m., n=3). GAPDH was used for normalization. FIG. 3i contains representative pictures of the subcellular localization of PD-L1. The immunofluorescence was performed in HCT116 cells. […]

Compound	sensitization of cells to IR (DNA damage stimulation) (cells)	recovery of NBS1 protein level in PD-L1 depleted cells [1]
durvalumab	did not sensitize cells to DNA damage stimulation; also recorded: did not sensitize cells to IR	
CC(C)C[C@@H](C=O)NC(=O)[C@H](CC(C)C)NC(=O)[C@H](CC(C)C)NC(=O)OCc1ccccc1 [MG132] (Cbz-Leu-Leu-Leu-aldehyde)		did not recover
